# Legend:
# Type in all cases: in vivo
# [1] = test system: redroot pigweed (Amaranthus retroflexus, AMARE); assay: Pre-emerge test, greenhouse herbicide activity screening; conditions: pre-emerge, phytotoxicity rating 0-100 at 14 days after application
# Outline: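 Herbicidal damage is scored 0 (none) to 100 (complete plant death) two weeks after a simulated field spray. Rates span 15–1000 g ai/ha, delivered in acetone at 187 l/ha. For post-emergence treatments, plants have 2–3 leaves and the spray carries 0.25% v/v non-ionic surfactant.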
# [2] = test system: barnyardgrass (Echinochloa crus-galli, ECHCG); assay: as above; conditions: pre-emerge, phytotoxicity rating 0-100 at 14 days after application
# Outline: (§1)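 Sandy loam pots; pre-emerge: sown 1 d pre-spray, surface-watered after, then bottom-watered. Post-emerge: sown 8–21 d before, 2–3 leaf stage, + 0.25% v/v NIS, bottom-watered. Acetone, 187 l/ha track spray, 15–1000 g ai/ha. 0–100 injury score, day 14.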
# [3] = test system: green foxtail (Setaria viridis, SETVI); assay: as above; conditions: pre-emerge, phytotoxicity rating 0-100 at 14 days after application
# Outline: as §1
# [4] = test system: ivyleaf morningglory (Ipomoea hederacea, IPOHE); assay: as above; conditions: pre-emerge, phytotoxicity rating 0-100 at 14 days after application
# Outline: as §1
# [5] = test system: johnsongrass (Sorghum halepense, SORHA); assay: as above; conditions: pre-emerge, phytotoxicity rating 0-100 at 14 days after application
# Outline: as §1
# [6] = test system: lambsquarters (Chenopodium album, CHEAL); assay: as above; conditions: pre-emerge, phytotoxicity rating 0-100 at 14 days after application
# Outline: as §1
# [7] = test system: large crabgrass (Digitaria sanguinalis, DIGSA); assay: as above; conditions: pre-emerge, phytotoxicity rating 0-100 at 14 days after application
# Outline: as §1
# [8] = test system: sicklepod (Cassia obtusifolia, CASOB); assay: as above; conditions: pre-emerge, phytotoxicity rating 0-100 at 14 days after application
# Outline: as §1
# [9] = test system: velvetleaf (Abutilon theophrasti, ABUTH); assay: as above; conditions: pre-emerge, phytotoxicity rating 0-100 at 14 days after application
# Outline: as §1
# [10] = test system: field corn (Zea mays L., var. Dekalb 535, CORN); assay: Pre-emerge test, crop safety; conditions: crop damage, pre-emerge, phytotoxicity rating 0-100 at 14 days after application
# Outline: (§2)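 Fourteen days after spraying, crop and weed injury was graded visually from 0, no effect, to 100, every plant dead. Test substances were dissolved in acetone and applied at 15–1000 g ai/ha with a flat-fan nozzle. Application was either pre-emergence, one day after sowing, or post-emergence at the 2–3 leaf stage.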
# [11] = test system: upland rice (Oryza sp., var. Tebonnet, RICE); assay: Pre-emerge test, crop safety; conditions: crop damage, pre-emerge, phytotoxicity rating 0-100 at 14 days after application
# Outline: as §2
# [12] = test system: barnyardgrass (Echinochloa crus-galli, ECHCG); assay: Post-emerge test, greenhouse herbicide activity screening; conditions: post-emerge, 14 days after application, rating scale 0-100
# Outline: (§3)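 Rating: 0–100 visual injury, 14 DAA. Application: acetone, 187 l/ha, 15–1000 g ai/ha, flat-fan track sprayer with nozzle 40–45 cm above soil or canopy. Post-emerge runs used 0.25% v/v surfactant on 2–3 leaf plants.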
# [13] = test system: green foxtail (Setaria viridis, SETVI); assay: as above; conditions: post-emerge, 14 days after application, rating scale 0-100
# Outline: as §3
# [14] = test system: ivyleaf morningglory (Ipomoea hederacea, IPOHE); assay: as above; conditions: post-emerge, 14 days after application, rating scale 0-100
# Outline: as §3
# [15] = test system: johnsongrass (Sorghum halepense, SORHA); assay: as above; conditions: post-emerge, 14 days after application, rating scale 0-100
# Outline: as §3
# [16] = test system: lambsquarters (Chenopodium album, CHEAL); assay: as above; conditions: post-emerge, 14 days after application, rating scale 0-100
# Outline: as §3
# [17] = test system: large crabgrass (Digitaria sanguinalis, DIGSA); assay: as above; conditions: post-emerge, 14 days after application, rating scale 0-100
# Outline: as §3
# [18] = test system: redroot pigweed (Amaranthus retroflexus, AMARE); assay: as above; conditions: post-emerge, 14 days after application
# Outline: as §3
# [19] = test system: sicklepod (Cassia obtusifolia, CASOB); assay: as above; conditions: post-emerge, 14 days after application, rating scale 0-100
# Outline: as §3
# [20] = test system: velvetleaf (Abutilon theophrasti, ABUTH); assay: as above; conditions: post-emerge, 14 days after application, rating scale 0-100
# Outline: as §3
# [21] = test system: field corn (Zea mays L., var. Dekalb 535, CORN); assay: Post-emerge test, crop safety; conditions: post-emerge, 14 days after application, rating scale 0-100
# Outline: as §1
# [22] = test system: upland rice (Oryza sp., var. Tebonnet, RICE); assay: Post-emerge test, crop safety; conditions: post-emerge, 14 days after application, rating scale 0-100
# Outline: as §1
smiles,measurement,setting,value
Cc1cccc(C)c1OC(=O)Nc1c(C)c(Cl)cc(F)c1-n1c(=O)cc(C(F)(F)F)n(C)c1=O [4-55],Pre-emerge Herbicidal Activity AMARE,[1]; rate 63 g ai/ha,30
same,Pre-emerge Herbicidal Activity AMARE,[1]; rate 250 g ai/ha,90
same,Pre-emerge Herbicidal Activity ECHCG,[2]; rate 63 g ai/ha,0
same,Pre-emerge Herbicidal Activity ECHCG,[2]; rate 250 g ai/ha,30
same,Pre-emerge Herbicidal Activity SETVI,[3]; rate 63 g ai/ha,40
same,Pre-emerge Herbicidal Activity SETVI,[3]; rate 250 g ai/ha,90
same,Pre-emerge Herbicidal Activity IPOHE,[4]; rate 63 g ai/ha,20
same,Pre-emerge Herbicidal Activity IPOHE,[4]; rate 250 g ai/ha,70
same,Pre-emerge Herbicidal Activity SORHA,[5]; rate 63 g ai/ha,0
same,Pre-emerge Herbicidal Activity SORHA,[5]; rate 250 g ai/ha,60
same,Pre-emerge Herbicidal Activity CHEAL,[6]; rate 63 g ai/ha,90
same,Pre-emerge Herbicidal Activity CHEAL,[6]; rate 250 g ai/ha,100
same,Pre-emerge Herbicidal Activity DIGSA,[7]; rate 63 g ai/ha,0
same,Pre-emerge Herbicidal Activity DIGSA,[7]; rate 250 g ai/ha,70
same,Pre-emerge Herbicidal Activity CASOB,[8]; rate 63 g ai/ha,0
same,Pre-emerge Herbicidal Activity CASOB,[8]; rate 250 g ai/ha,30
same,Pre-emerge Herbicidal Activity ABUTH,[9]; rate 63 g ai/ha,80
same,Pre-emerge Herbicidal Activity ABUTH,[9]; rate 250 g ai/ha,100
same,Pre-emerge Herbicidal Activity CORN,[10]; rate 63 g ai/ha,0
same,Pre-emerge Herbicidal Activity CORN,[10]; rate 250 g ai/ha,30
same,Pre-emerge Herbicidal Activity RICE,[11]; rate 63 g ai/ha,0
same,Pre-emerge Herbicidal Activity RICE,[11]; rate 250 g ai/ha,60
same,phytotoxicity rating ECHCG,[12]; 63 g ai/ha,0
same,phytotoxicity rating ECHCG,[12]; 250 g ai/ha,20
same,phytotoxicity rating SETVI,[13]; 63 g ai/ha,10
same,phytotoxicity rating SETVI,[13]; 250 g ai/ha,40
same,phytotoxicity rating IPOHE,[14]; 63 g ai/ha,40
same,phytotoxicity rating IPOHE,[14]; 250 g ai/ha,85
same,phytotoxicity rating SORHA,[15]; 63 g ai/ha,0
same,phytotoxicity rating SORHA,[15]; 250 g ai/ha,10
same,phytotoxicity rating CHEAL,[16]; 63 g ai/ha,50
same,phytotoxicity rating CHEAL,[16]; 250 g ai/ha,90
same,phytotoxicity rating DIGSA,[17]; 63 g ai/ha,0
same,phytotoxicity rating DIGSA,[17]; 250 g ai/ha,10
same,phytotoxicity rating AMARE,"[18]; 63 g ai/ha, rating scale 0-100 (0 no damage, 100 complete death)",50
same,phytotoxicity rating AMARE,"[18]; 250 g ai/ha, rating scale 0-100",80
same,phytotoxicity rating CASOB,[19]; 63 g ai/ha,20
same,phytotoxicity rating CASOB,[19]; 250 g ai/ha,40
same,phytotoxicity rating ABUTH,[20]; 63 g ai/ha,100
same,phytotoxicity rating ABUTH,[20]; 250 g ai/ha,100
same,phytotoxicity rating CORN (crop damage),[21]; 63 g ai/ha,10
same,phytotoxicity rating CORN (crop damage),[21]; 250 g ai/ha,5
same,phytotoxicity rating RICE (crop damage),[22]; 63 g ai/ha,0
same,phytotoxicity rating RICE (crop damage),[22]; 250 g ai/ha,35

# From US6355799B1, “Substituted benzene compounds, process for their preparation, and herbicidal and defoliant compositions containing them” (ISK Americas Incorporated, priority 1997, dated 2002)
